Results from PubChem BioAssay (NCI).
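Where inhibition never reached the appropriate level, the endpoint shown equals the highest concentration tested. Otherwise, values were interpolated linearly from a five-concentration, 48-hour dose response in 96-well plates. TGI: total growth inhibition.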

Experiments:
Assay in all cases: growth of human tumour cells (NCI), 48 h
SNB-75 CNS = tested on: SNB-75 CNS
K-562 leukemia = tested on: K-562 leukemia
EKVX NSCLC = tested on: EKVX NSCLC
MDA-N = tested on: MDA-N
A549 NSCLC = tested on: A549 NSCLC
SF-539 CNS = tested on: SF-539 CNS
HCT-15 colon = tested on: HCT-15 colon
NCI-H522 lung = tested on: NCI-H522 lung
MCF7 breast = tested on: MCF7 breast
OVCAR-4 ovarian = tested on: OVCAR-4 ovarian
HL-60(TB) leukemia = tested on: HL-60(TB) leukemia
SK-MEL-28 melanoma = tested on: SK-MEL-28 melanoma

SMILES	TGI (SNB-75 CNS)	TGI (K-562 leukemia)	TGI (EKVX NSCLC)	TGI (MDA-N)	TGI (A549 NSCLC)	TGI (SF-539 CNS)	TGI (HCT-15 colon)	TGI (NCI-H522 lung)	TGI (MCF7 breast)	TGI (OVCAR-4 ovarian)	TGI (HL-60(TB) leukemia)	TGI (SK-MEL-28 melanoma)
COCC(=O)OC1CCn2c1nc1c2C(=O)C(C)=C(NC(C)=O)C1=N (stereo unspecified)	29 µM	4.59 µM	25.3 µM	3.23 µM	42.5 µM	3.87 µM	27.5 µM	21.5 µM	3.52 µM	4.89 µM	4.54 µM	10.6 µM
Cc1cc(N(CCC#N)CCC#N)ccc1/C(N=Nc1ccccc1)=N\NC(=O)c1ccccc1	> 100 µM	44.7 µM	> 100 µM	> 100 µM	> 100 µM	54.1 µM	48 µM	35.3 µM	> 100 µM	> 100 µM	> 100 µM	
Cc1nn(-c2ccccc2)c2c1C(c1cc3ccccc3nc1Cl)NC(=S)N2 (stereo unspecified)	> 100 µM	> 100 µM	> 100 µM	> 100 µM	> 100 µM	67.2 µM	> 100 µM	69.5 µM	> 100 µM	> 100 µM	> 100 µM	
COc1ccc(C(=O)/C=C/c2ccc(OCC(=O)O)cc2)cc1	> 100 µM	> 100 µM	> 100 µM	> 100 µM	> 100 µM	> 100 µM	> 100 µM	> 100 µM	> 100 µM		> 100 µM	> 100 µM
O=C1c2ccccc2C(=O)c2c1oc(=O)c1ccccc21	12.3 µM	17.9 µM	14.3 µM	5.7 µM	> 25 µM	> 25 µM	7.5 µM	9.73 µM	13.6 µM	3.56 µM	1.71 µM	17 µM
CC1(C)CCCCCC(C)(CCCCCCCCCCCO)C1=O (stereo unspecified)	29.9 µM	31 µM	32 µM	32.3 µM	29 µM	30.9 µM	29.7 µM	31.1 µM	29.8 µM	28.8 µM	31.8 µM	32 µM
CC1(C)O[C@H]2[C@@H]3N=C(c4ccccc4)O[C@@H]3C=C[C@H]2O1		> 100 µM	> 100 µM	> 100 µM	> 100 µM	> 100 µM	> 100 µM	17.4 µM	> 100 µM	> 100 µM	> 100 µM	> 100 µM
c1ccc2c(c1)CCN1CCc3c([nH]c4ccccc34)C21 (stereo unspecified)	79 µM	43.3 µM	82.1 µM	73.8 µM	> 100 µM	> 100 µM	> 100 µM	66 µM	> 100 µM	> 100 µM	34.3 µM	48.8 µM
CC(C)/C(Cl)=N\OC(=O)Nc1ccc(F)c([N+](=O)[O-])c1	27.2 µM	> 100 µM	26.5 µM	29.4 µM	56 µM	7.82 µM	6.75 µM	2.45 µM	> 58.1 µM	8.99 µM	2.85 µM	17.4 µM
O=c1c2ccccc2c2c1c1c3ccccc3c(=O)c1c1c3ccccc3c(=O)c21	> 100 µM	> 100 µM	> 100 µM	> 100 µM	> 100 µM	> 100 µM	> 100 µM	> 100 µM	> 100 µM		> 100 µM	> 100 µM
COc1ccc(N2CCN(Cc3c(C(C)=O)[n+](=O)c4ccccc4n3[O-])CC2)cc1	> 100 µM	> 100 µM	> 100 µM	> 100 µM	> 100 µM		> 100 µM	> 100 µM	> 100 µM	> 100 µM	> 100 µM	> 100 µM
COc1ccc(/C=C(\C(=O)OCC(C)C)c2ccc(OC)c(OC)c2)cc1OC	> 100 µM	> 100 µM	> 100 µM	> 100 µM	> 100 µM	> 100 µM	> 100 µM	> 100 µM	> 100 µM	> 100 µM	> 100 µM	> 100 µM
COc1cc(S(=O)(=O)Nc2ccc(-c3csc(N4C(=O)C(C)SC4c4ccccc4O)n3)cc2)ccc1Cl (stereo unspecified)	95.7 µM	> 100 µM	> 100 µM	> 100 µM	> 100 µM	> 100 µM	> 100 µM	37 µM	> 100 µM		56.4 µM	55.6 µM
CCCN1CN(c2ccccc2)C2(CCN(CCCC(=O)c3ccc(F)cc3)CC2)C1=O	47.5 µM	> 58.4 µM	54.2 µM	23 µM	29.8 µM	15.5 µM	16.9 µM	43.6 µM	11.9 µM	20.2 µM	40.2 µM	34.3 µM
CC1C2(C)OC(=N)C(C#N)(C(c3ccco3)O2)C1(C#N)C#N (stereo unspecified)	> 100 µM	> 100 µM	> 100 µM	43 µM	> 100 µM	35.9 µM	25 µM		51.4 µM		48.3 µM	46.2 µM
O=C(O)CSc1nnc(CCCCCCCCc2nnc(SCC(=O)O)o2)o1	73.1 µM	> 100 µM	> 100 µM	> 100 µM	> 100 µM		> 100 µM	> 100 µM	> 100 µM	> 100 µM	> 100 µM	> 100 µM
COc1ccc(-c2oc3cc(OC)c(OC)c(OC)c3c(=O)c2OC)cc1OC	> 100 µM	> 100 µM	> 100 µM	> 100 µM	> 100 µM	> 100 µM	> 100 µM	> 100 µM	> 100 µM	> 100 µM	83.4 µM	> 100 µM
Clc1ccc2c(c1)CC1C[N+]3=C(CCCC3)C1=C2 (stereo unspecified)	> 100 µM	> 100 µM	> 100 µM	> 100 µM	> 100 µM		> 100 µM	> 100 µM	> 100 µM	> 100 µM	> 100 µM	> 100 µM
Cn1c(=O)c2nc3nnc(C#N)c(N)n3c2n(C)c1=O		> 100 µM	> 100 µM	> 100 µM	> 100 µM	> 100 µM	> 100 µM	> 100 µM	> 100 µM	> 100 µM	> 100 µM	> 100 µM
